# Assay results from the supplement of paper PMC10307832.
# Key:
# Test in all cases: relative viability (nuclei count vs DMSO), 5 days (fraction); higher = more cells survive
# Pictilisib + AZD7762 = compound: CS(=O)(=O)N1CCN(Cc2cc3nc(-c4cccc5[nH]ncc45)nc(N4CCOCC4)c3s2)CC1 [Pictilisib] + NC(=O)Nc1cc(-c2cccc(F)c2)sc1C(=O)N[C@H]1CCCNC1 [AZD7762] (partner 0.2 µM)
# Procedure, shortened: (§1)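 The day after seeding in 1536-well plates, lung cancer cell lines were treated by pin tool with a single drug, or with a fixed anchor-drug dose together with five library-drug doses (not always all listed) in √10 steps. After 5 days, a combined fix-and-stain solution (final 0.05% Triton X-100, 1% formaldehyde, 1 ug/ml Hoechst) was added. Nuclei counted on 4× images gave relative viability as treated counts over vehicle counts, reported as the median of duplicate plates.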
# Pictilisib + Foretinib = compound: CS(=O)(=O)N1CCN(Cc2cc3nc(-c4cccc5[nH]ncc45)nc(N4CCOCC4)c3s2)CC1 [Pictilisib] + COc1cc2c(Oc3ccc(NC(=O)C4(C(=O)Nc5ccc(F)cc5)CC4)cc3F)ccnc2cc1OCCCN1CCOCC1 [Foretinib] (partner 0.25 µM)
# Procedure, shortened: as §1
# MK-2206 + Pictilisib = compound: NC1(c2ccc(-c3nc4ccn5c(=O)[nH]nc5c4cc3-c3ccccc3)cc2)CCC1 [MK-2206] + CS(=O)(=O)N1CCN(Cc2cc3nc(-c4cccc5[nH]ncc45)nc(N4CCOCC4)c3s2)CC1 [Pictilisib] (partner 1 µM)
# Procedure, shortened: as §1
# MK-2206 + Phenformin = compound: NC1(c2ccc(-c3nc4ccn5c(=O)[nH]nc5c4cc3-c3ccccc3)cc2)CCC1 [MK-2206] + N=C(N)NC(=N)NCCc1ccccc1 [Phenformin] (partner 250 µM)
# Procedure, shortened: as §1
Cell Line,relative viability (Pictilisib + AZD7762; first compound 0.02 µM),relative viability (Pictilisib + AZD7762; first compound 0.06325 µM),relative viability (Pictilisib + AZD7762; first compound 0.6325 µM),relative viability (Pictilisib + AZD7762; first compound 2 µM),relative viability (Pictilisib + Foretinib; first compound 0.02 µM),relative viability (Pictilisib + Foretinib; first compound 0.06325 µM),relative viability (Pictilisib + Foretinib; first compound 0.6325 µM),relative viability (Pictilisib + Foretinib; first compound 2 µM),relative viability (MK-2206 + Pictilisib; first compound 0.01 µM),relative viability (MK-2206 + Pictilisib; first compound 0.03162 µM),relative viability (MK-2206 + Pictilisib; first compound 0.3162 µM),relative viability (MK-2206 + Pictilisib; first compound 1 µM),relative viability (MK-2206 + Phenformin; first compound 0.01 µM),relative viability (MK-2206 + Phenformin; first compound 0.03162 µM),relative viability (MK-2206 + Phenformin; first compound 0.3162 µM),relative viability (MK-2206 + Phenformin; first compound 1 µM)
LC-2-ad,0.814,0.799,0.646,0.407,0.959,0.948,0.662,0.491,0.452,0.63,0.502,0.352,0.544,0.589,0.532,0.365
LCLC-97TM1,0.34,0.469,0.258,0.133,0.991,0.972,0.714,0.239,0.231,0.259,0.131,0.164,0.431,0.48,0.315,0.384
LCLC-103H,0.803,0.728,0.588,0.456,0.77,0.634,0.403,0.393,0.642,0.688,0.54,0.701,0.304,0.321,0.351,0.314
LK-2,0.357,0.392,0.147,0.0792,0.999,0.885,0.812,0.347,0.684,0.707,0.583,0.667,0.302,0.543,0.315,0.174
LOU-NH91,0.803,0.718,0.567,0.495,0.73,0.886,0.834,0.738,0.551,0.479,0.461,0.474,0.682,0.727,0.683,0.555
LU99A,0.423,0.395,0.266,0.185,1.04,0.866,0.674,0.464,0.327,0.314,0.261,0.289,1.01,0.874,0.803,0.903
LXF-289,1.19,1.14,1.08,0.849,1.01,0.931,0.957,0.926,0.755,0.821,0.748,0.705,0.506,0.542,0.542,0.548
NCI-H23,0.203,0.258,0.209,0.155,0.919,0.94,0.778,0.437,0.528,0.491,0.444,0.464,0.688,0.844,0.673,0.666
NCI-H322M,0.55,0.607,0.495,0.339,0.936,0.985,0.792,0.559,0.509,0.529,0.489,0.511,0.756,0.822,0.725,0.769
NCI-H358,0.542,0.521,0.335,0.267,0.749,0.763,0.548,0.274,0.378,0.333,0.355,0.347,0.338,0.352,0.328,0.412
NCI-H441,1.18,1.11,1.11,0.7,0.929,0.749,0.745,0.539,0.501,0.467,0.424,0.48,0.974,0.865,0.656,0.449
NCI-H460,0.72,0.66,0.627,0.183,1.01,0.978,0.883,0.243,0.355,0.307,0.294,0.222,0.489,0.613,0.521,0.45
NCI-H596,1.01,1.14,0.564,0.44,0.603,0.735,0.454,0.283,0.446,0.386,0.324,0.345,0.738,0.956,0.651,0.481
NCI-H647,0.474,0.577,0.283,0.201,1.05,0.997,1.15,0.758,0.455,0.452,0.354,0.273,0.479,0.542,0.38,0.542
NCI-H650,0.806,0.95,0.998,0.655,0.984,1.09,1,0.877,0.804,0.901,0.87,0.81,0.458,0.473,0.471,0.353
NCI-H727,0.636,0.545,0.607,0.31,0.76,0.843,0.672,0.467,0.47,0.413,0.36,0.254,0.607,0.71,0.533,0.592
NCI-H838,0.906,0.747,0.928,0.809,0.973,0.895,0.929,0.45,0.517,0.436,0.464,0.42,0.554,0.722,0.517,0.447
NCI-H1355,0.678,0.689,0.546,0.362,0.931,0.868,0.849,0.398,0.486,0.475,0.454,0.4,0.434,0.476,0.4,0.317
NCI-H1395,0.44,0.416,0.375,0.338,0.966,1.01,0.962,0.588,0.653,0.677,0.462,0.498,0.508,0.481,0.4,0.354
